The results in this text go back to patent publication US20100035867A1 (priority 2006, published 2010).

By IC50 is commonly meant the point on the concentration scale where inhibition reaches its midpoint. The term inhibition denotes the drop in the measured response relative to a control, in per cent.

Where “and” joins values, the source holds several entries; their conditions need not be identical. Identical values can stand only once.

Test [1] relates to adenylyl cyclase. Type of test: cell-based, human.
In test [2] the test system is adenylyl cyclase. Type of test: cell-based, human. The source holds these as a separate data set.
Test [3] has as its system T84 cells. Put plainly: STa-induced chloride transport in T84 cells (SPQ). Type of test: cell-based, human. The following applies: increasing STa concentrations, 50 μM compound. The method, then:
The chloride transport assay was performed by a method known in the art (West, M. R.; Molloy, C. R., A microplate assay measuring chloride ion channel activity. Anal Biochem 1996, 241, (1), 51-8). In some experiments, MQAE was used as a fluorescent sensor for chloride anions and in other experiments, SPQ was used to detect chloride efflux from T84 cells.
This experiment followed the protocol described in Examples 2 and 10. SPQ was used to detect chloride efflux from T84 cells.

Test [4] deals with rabbit intestinal loop. In words: Liquid secretion induced by STa in a rabbit intestinal loop model. Type of test: in vivo. The method, then:
The test was performed by the method known in the art (Alcantara, C. S.; Jin, X. H.; Brito, G. A.; Carneiro-Filho, B. A.; Barrett, L. J.; Carey, R. M.; Guerrant, R. L., Angiotensin II subtype 1 receptor blockade inhibits Clostridium difficile toxin A-induced intestinal secretion in a rabbit model. J Infect Dis 2005, 191, (12), 2090-6). Volume of liquid in the loop was divided by the length of the loop and the normalized value was used to assess liquid accumulation in the intestinal lumen.

Test [5] concerns the target T1, guanylyl cyclase type B (GC-B) (Rattus norvegicus, UniProt P16067).
T1 sequence (P16067 17-1047): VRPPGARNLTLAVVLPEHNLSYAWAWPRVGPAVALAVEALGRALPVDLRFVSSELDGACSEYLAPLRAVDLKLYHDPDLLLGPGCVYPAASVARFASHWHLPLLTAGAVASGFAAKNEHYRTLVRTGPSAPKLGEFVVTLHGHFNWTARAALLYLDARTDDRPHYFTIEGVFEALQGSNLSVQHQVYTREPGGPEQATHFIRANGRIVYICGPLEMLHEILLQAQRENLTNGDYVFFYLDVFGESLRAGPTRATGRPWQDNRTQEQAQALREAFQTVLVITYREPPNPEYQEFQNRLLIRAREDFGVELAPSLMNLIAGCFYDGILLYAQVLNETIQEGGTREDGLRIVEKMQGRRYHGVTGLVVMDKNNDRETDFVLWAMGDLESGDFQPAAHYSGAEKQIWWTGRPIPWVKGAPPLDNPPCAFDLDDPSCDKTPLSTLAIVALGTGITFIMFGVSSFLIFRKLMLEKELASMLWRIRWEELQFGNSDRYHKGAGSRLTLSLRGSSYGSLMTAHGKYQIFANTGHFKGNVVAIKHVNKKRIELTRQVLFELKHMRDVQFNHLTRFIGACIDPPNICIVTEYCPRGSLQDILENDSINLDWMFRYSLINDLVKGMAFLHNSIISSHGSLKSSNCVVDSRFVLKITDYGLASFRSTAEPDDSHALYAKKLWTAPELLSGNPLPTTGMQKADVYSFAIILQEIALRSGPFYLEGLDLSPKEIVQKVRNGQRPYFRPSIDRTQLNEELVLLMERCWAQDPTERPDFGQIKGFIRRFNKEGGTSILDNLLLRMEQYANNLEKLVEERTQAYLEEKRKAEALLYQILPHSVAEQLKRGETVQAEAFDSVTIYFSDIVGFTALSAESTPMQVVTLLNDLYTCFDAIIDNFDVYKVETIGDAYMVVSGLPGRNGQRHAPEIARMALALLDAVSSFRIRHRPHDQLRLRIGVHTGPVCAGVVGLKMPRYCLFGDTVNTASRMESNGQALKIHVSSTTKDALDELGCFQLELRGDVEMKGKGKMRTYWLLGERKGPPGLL
In words: CNP-induced cyclic GMP accumulation in RFL-6 fibroblast cells. To be noted: RFL-6 cells, 1 μM CNP, 50 μM compound.

Test [6] addresses T2, membrane guanylyl cyclase (guanylyl cyclase type B, GC-B) (Homo sapiens, UniProt P20594).
T2 sequence (P20594 23-1047): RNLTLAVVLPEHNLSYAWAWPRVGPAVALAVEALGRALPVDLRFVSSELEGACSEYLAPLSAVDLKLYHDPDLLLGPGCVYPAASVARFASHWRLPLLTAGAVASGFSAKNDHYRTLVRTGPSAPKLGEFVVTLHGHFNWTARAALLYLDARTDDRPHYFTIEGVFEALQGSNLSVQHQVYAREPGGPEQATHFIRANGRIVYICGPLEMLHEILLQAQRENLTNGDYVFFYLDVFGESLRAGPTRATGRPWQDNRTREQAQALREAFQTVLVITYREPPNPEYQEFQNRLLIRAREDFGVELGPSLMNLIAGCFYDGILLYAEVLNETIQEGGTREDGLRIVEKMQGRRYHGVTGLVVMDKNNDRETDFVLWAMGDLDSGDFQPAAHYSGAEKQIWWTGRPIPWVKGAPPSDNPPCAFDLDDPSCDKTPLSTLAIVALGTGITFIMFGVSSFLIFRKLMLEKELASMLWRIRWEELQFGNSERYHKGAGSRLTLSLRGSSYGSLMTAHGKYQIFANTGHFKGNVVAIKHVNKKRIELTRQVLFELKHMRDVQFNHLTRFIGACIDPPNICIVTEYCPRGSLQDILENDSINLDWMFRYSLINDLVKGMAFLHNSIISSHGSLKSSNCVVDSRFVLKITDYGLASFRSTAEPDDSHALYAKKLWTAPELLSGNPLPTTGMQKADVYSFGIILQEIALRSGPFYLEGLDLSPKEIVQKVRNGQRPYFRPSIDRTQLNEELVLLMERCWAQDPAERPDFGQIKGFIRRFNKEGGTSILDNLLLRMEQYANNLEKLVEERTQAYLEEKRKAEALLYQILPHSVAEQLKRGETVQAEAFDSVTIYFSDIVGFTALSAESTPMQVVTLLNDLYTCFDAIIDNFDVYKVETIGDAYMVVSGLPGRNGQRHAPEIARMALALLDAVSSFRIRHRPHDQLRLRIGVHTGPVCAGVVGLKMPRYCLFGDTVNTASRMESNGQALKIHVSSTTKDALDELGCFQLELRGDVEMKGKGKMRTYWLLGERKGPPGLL
Put plainly: CNP-induced cyclic GMP accumulation in BE-2(C) neuroblastoma cells.

The target of test [7] is guanylyl cyclase type C (GC-C) (Homo sapiens, UniProt P25092). Put plainly: Guanylin-induced activation of GC-C in T84 cells (cyclic GMP accumulation).
Chain of guanylyl cyclase type C (GC-C) (P25092 24-1073): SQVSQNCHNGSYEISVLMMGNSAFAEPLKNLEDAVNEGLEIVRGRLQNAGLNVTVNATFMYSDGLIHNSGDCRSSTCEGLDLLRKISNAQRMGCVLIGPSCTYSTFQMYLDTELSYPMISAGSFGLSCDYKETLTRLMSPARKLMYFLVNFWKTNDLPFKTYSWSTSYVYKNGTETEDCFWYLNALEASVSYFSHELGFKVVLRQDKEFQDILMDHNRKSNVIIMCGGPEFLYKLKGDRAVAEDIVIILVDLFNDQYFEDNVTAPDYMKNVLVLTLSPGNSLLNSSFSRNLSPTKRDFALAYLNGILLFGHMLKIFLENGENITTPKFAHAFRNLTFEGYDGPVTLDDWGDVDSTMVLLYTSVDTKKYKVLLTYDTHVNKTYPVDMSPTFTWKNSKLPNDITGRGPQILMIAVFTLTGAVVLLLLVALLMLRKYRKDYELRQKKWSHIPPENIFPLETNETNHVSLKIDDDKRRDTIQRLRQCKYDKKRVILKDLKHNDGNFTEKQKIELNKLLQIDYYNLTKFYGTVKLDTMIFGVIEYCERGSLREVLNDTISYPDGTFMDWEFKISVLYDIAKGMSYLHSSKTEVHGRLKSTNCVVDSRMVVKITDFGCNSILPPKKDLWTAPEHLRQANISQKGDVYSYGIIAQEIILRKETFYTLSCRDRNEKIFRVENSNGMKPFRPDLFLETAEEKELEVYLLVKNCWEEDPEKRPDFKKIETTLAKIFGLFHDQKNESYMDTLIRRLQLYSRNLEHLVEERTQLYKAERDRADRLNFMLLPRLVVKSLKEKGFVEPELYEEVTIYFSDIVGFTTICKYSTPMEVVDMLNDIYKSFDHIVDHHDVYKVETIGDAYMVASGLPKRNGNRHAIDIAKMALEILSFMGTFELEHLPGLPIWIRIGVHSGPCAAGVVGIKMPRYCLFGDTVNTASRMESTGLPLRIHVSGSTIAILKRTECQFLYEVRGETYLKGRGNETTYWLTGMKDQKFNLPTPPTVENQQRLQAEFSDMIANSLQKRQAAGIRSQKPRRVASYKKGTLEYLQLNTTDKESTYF

As for `Cn1c2c(c(=O)n(C)c1=O)C(c1cccc(Br)c1)C1=C(N2)c2ccccc2C1=O` (centres unmarked) [compound IIb], in test [1], the “amount of cyclic AMP accumulated” value stood at 1.2±0.1 nmol/mg protein. Also, in test [1] (T84 cells, cholera toxin 1 μg/ml, 50 μM compound), the “inhibition of cholera toxin-induced cyclic AMP” value came to 84.6%. Further, the “inhibition of cyclic AMP accumulation” value in test [2] was 41.3% and 58.2%. Further, in test [3], the “STa-induced increase in chloride efflux” value is “significantly suppressed”. Moreover, the “liquid accumulation (volume per loop length)” value in test [4] (rabbit loops injected with 100 nM STa and 50 μM compound, STa+vehicle 0.62±0.05, PBS 0.18±0.03) amounted to 0.15 ± 0.06 mL/cm. Besides, in test [4] (rabbit loops, 100 nM STa, 50 μM compound), the “inhibition of STa-stimulated liquid accumulation” value is given as “completely”. In addition, the “inhibition of cyclic GMP accumulation (FIG. 6)” value in test [5] was “inhibition”. For the same compound, the IC50 in test [6] stood at 11.2 µM; in test [7], 7.2 µM. The inhibition at 50 µM in test [7] (T84, read-out: inhibition of guanylin-induced cyclic GMP) stood at 58.9%. The “level of cyclic GMP” value in test [7] (T84 cells, 500 nM guanylin, 50 μM compound, vehicle 124±13) was 51±6 pmol/mg protein.
